Literature values as cited in paper PMC10017685 (Nature Communications, 2023).
Read-outs that look alike come from different tables or passages of the source.

Tested on: human erythrocytes
Parameters: method as in DBAASP
Conditions: cited from earlier work
[1] = toxicity class label 1 or 0, meaning of the labels not given, DBAASP HC50 data, human erythrocytes, ref DBAASP

KLLKFIKTLL [DBAASP_3151]
Class (dedicated toxicity dataset used for toxicity classifier evaluation) [1]: 0

FLSIIAKVLGSLF [DBAASP_3104]
Class (dedicated toxicity dataset used for toxicity classifier evaluation) [1]: 1

KIAKGALKALKIAKGALKAL [DBAASP_11229]
Class (dedicated toxicity dataset used for toxicity classifier evaluation) [1]: 0

FFFLSRIF [DBAASP_3232]
Class (dedicated toxicity dataset used for toxicity classifier evaluation) [1]: 0

NLLGSLLKTGLKVGSNLL [DBAASP_5712]
Class (dedicated toxicity dataset used for toxicity classifier evaluation) [1]: 0

AFALIAGALYRIFHRR [DBAASP_16955]
Class (dedicated toxicity dataset used for toxicity classifier evaluation) [1]: 0

FLPLLLAGLPKLLCLFFKKC [DBAASP_1470]
Class (dedicated toxicity dataset used for toxicity classifier evaluation) [1]: 1

KKLFKKILKYL [DBAASP_197]
Class (dedicated toxicity dataset used for toxicity classifier evaluation) [1]: 0

VKKFAWWWAFLKK [DBAASP_11303]
Class (dedicated toxicity dataset used for toxicity classifier evaluation) [1]: 0

FLSLIPHIVSGVASIAKHF [DBAASP_3889]
Class (dedicated toxicity dataset used for toxicity classifier evaluation) [1]: 0

IIKKIIKKIIKKI [DBAASP_13881]
Class (dedicated toxicity dataset used for toxicity classifier evaluation) [1]: 0

SAVGRHLRRFGLRKHRKH [DBAASP_7659]
Class (dedicated toxicity dataset used for toxicity classifier evaluation) [1]: 0

GILKSLLKKLKKIIAK [DBAASP_8908]
Class (dedicated toxicity dataset used for toxicity classifier evaluation): 0

RWCRRYRVRVRGVLVYAYVCW [DBAASP_13505]
Class (dedicated toxicity dataset used for toxicity classifier evaluation) [1]: 0

GVWSTVLGGLKKFAKGGLEAIVNPK [DBAASP_3155]
Class (dedicated toxicity dataset used for toxicity classifier evaluation) [1]: 0

CWKWKWKWGSGWKWKWKWC [DBAASP_353]
Class (dedicated toxicity dataset used for toxicity classifier evaluation) [1]: 0

GFGSLLGKALRLGANVL [DBAASP_3772]
Class (dedicated toxicity dataset used for toxicity classifier evaluation) [1]: 0

FLPILAGLAANILPKVFCSITKKC [DBAASP_4221]
Class (dedicated toxicity dataset used for toxicity classifier evaluation) [1]: 1

GILSSLWKKPKKIIAK [DBAASP_8919]
Class (dedicated toxicity dataset used for toxicity classifier evaluation) [1]: 0

FLQHIIGALTHIF [DBAASP_10246]
Class (dedicated toxicity dataset used for toxicity classifier evaluation) [1]: 0

GILSSLLKKLKKWIAK [DBAASP_8917]
Class (dedicated toxicity dataset used for toxicity classifier evaluation): 0

LWKIWKKIWRVWKNWR [DBAASP_17516]
Class (dedicated toxicity dataset used for toxicity classifier evaluation) [1]: 1

KGIVGMLGKLF [DBAASP_5480]
Class (dedicated toxicity dataset used for toxicity classifier evaluation) [1]: 0

ILPILGNLLNGLL [DBAASP_3402]
Class (dedicated toxicity dataset used for toxicity classifier evaluation) [1]: 0

LLKKVLKAAA [DBAASP_7357]
Class (dedicated toxicity dataset used for toxicity classifier evaluation) [1]: 0

HKLGTLVNLAKKIL [DBAASP_5015]
Class (dedicated toxicity dataset used for toxicity classifier evaluation) [1]: 0

GFWGKLWEGVKNAI [DBAASP_3479]
Class (dedicated toxicity dataset used for toxicity classifier evaluation) [1]: 1

IIKKIIKKIIKK [DBAASP_13883]
Class (dedicated toxicity dataset used for toxicity classifier evaluation) [1]: 0

GLWSKIKKAAKTAGKAALGFVNKMV [DBAASP_14234]
Class (dedicated toxicity dataset used for toxicity classifier evaluation) [1]: 0

SYERKINRHFKTLKKNLKKK [DBAASP_13931]
Class (dedicated toxicity dataset used for toxicity classifier evaluation) [1]: 0

GLLKKLLKKLLKKL [DBAASP_13973]
Class (dedicated toxicity dataset used for toxicity classifier evaluation): 1

SKVLRHLRRFLHRAHRKL [DBAASP_7665]
Class (dedicated toxicity dataset used for toxicity classifier evaluation) [1]: 0

KWAVRIIRKFIKGFIS [DBAASP_13726]
Class (dedicated toxicity dataset used for toxicity classifier evaluation) [1]: 0

LPFFLLSLIPSAISAIKKI [DBAASP_8437]
Class (dedicated toxicity dataset used for toxicity classifier evaluation) [1]: 1

FLPLIAGVAANFLPKIFCLISKKC [DBAASP_6168]
Class (dedicated toxicity dataset used for toxicity classifier evaluation) [1]: 1

FLSKIWDGVKSLL [DBAASP_18168]
Class (dedicated toxicity dataset used for toxicity classifier evaluation) [1]: 0

GLKKIFKAGLGSLVKGIKAHVAS [DBAASP_4414]
Class (dedicated toxicity dataset used for toxicity classifier evaluation) [1]: 0

FWGALAKGALKLIPSLFSSFSKKD [DBAASP_948]
Class (dedicated toxicity dataset used for toxicity classifier evaluation) [1]: 1

WWWRRRIW [DBAASP_10633]
Class (dedicated toxicity dataset used for toxicity classifier evaluation) [1]: 0

GLLGPLLKIAAKVGSKLL [DBAASP_4926]
Class (dedicated toxicity dataset used for toxicity classifier evaluation) [1]: 0

WWRLRRIW [DBAASP_10632]
Class (dedicated toxicity dataset used for toxicity classifier evaluation) [1]: 0

GIMSSLMKKLAAHIKK [DBAASP_8896]
Class (dedicated toxicity dataset used for toxicity classifier evaluation): 0

KKLIKKILKIL [DBAASP_5047]
Class (dedicated toxicity dataset used for toxicity classifier evaluation) [1]: 0

CVKVKVKVGSGVKVKVKVC [DBAASP_347]
Class (dedicated toxicity dataset used for toxicity classifier evaluation) [1]: 0

GLKALKKVFKGIHKAIKLINNHVQ [DBAASP_6929]
Class (dedicated toxicity dataset used for toxicity classifier evaluation) [1]: 0

HFLGTLVNKAKKIL [DBAASP_5023]
Class (dedicated toxicity dataset used for toxicity classifier evaluation) [1]: 0

AILTTLANWARKFL [DBAASP_3561]
Class (dedicated toxicity dataset used for toxicity classifier evaluation) [1]: 0

GWKDLLKGAAKALVKTVF [DBAASP_11233]
Class (dedicated toxicity dataset used for toxicity classifier evaluation) [1]: 0

GLNAFKKVFQGIHEAIKLINNHVQ [DBAASP_6933]
Class (dedicated toxicity dataset used for toxicity classifier evaluation) [1]: 0

VRRFPWYYPFLRR [DBAASP_14263]
Class (dedicated toxicity dataset used for toxicity classifier evaluation) [1]: 0

WKRRIKIWKKIR [DBAASP_10625]
Class (dedicated toxicity dataset used for toxicity classifier evaluation) [1]: 0

ILPYKYPYYPYRR [DBAASP_4763]
Class (dedicated toxicity dataset used for toxicity classifier evaluation) [1]: 0

KIAGKIAKIAGKIAKIAGKIA [DBAASP_691]
Class (dedicated toxicity dataset used for toxicity classifier evaluation): 0

RWFKIQMQIRRWKNKK [DBAASP_8804]
Class (dedicated toxicity dataset used for toxicity classifier evaluation) [1]: 0

GIKEFAHSLGKFGKAFVGGILNQ [DBAASP_3817]
Class (dedicated toxicity dataset used for toxicity classifier evaluation) [1]: 0

FLQHIIGALGHLF [DBAASP_10244]
Class (dedicated toxicity dataset used for toxicity classifier evaluation) [1]: 0

ILKKLLSTAAGLLSNL [DBAASP_4360]
Class (dedicated toxicity dataset used for toxicity classifier evaluation) [1]: 0

RWRRFWRR [DBAASP_12823]
Class (dedicated toxicity dataset used for toxicity classifier evaluation) [1]: 0

WWWLKKIW [DBAASP_9820]
Class (dedicated toxicity dataset used for toxicity classifier evaluation) [1]: 0

KIAKVALKALKIAKVALKAL [DBAASP_9753]
Class (dedicated toxicity dataset used for toxicity classifier evaluation) [1]: 0

FLPAIAGLAAKFLPKIFCAITKKC [DBAASP_13908]
Class (dedicated toxicity dataset used for toxicity classifier evaluation) [1]: 1

GIKKWVKGVAKGVAKDLAKKIL [DBAASP_11866]
Class (dedicated toxicity dataset used for toxicity classifier evaluation) [1]: 0

GIGGALLSFGKSALKGLAKGLAEHF [DBAASP_12131]
Class (dedicated toxicity dataset used for toxicity classifier evaluation) [1]: 0

CAKAKAKAGSGAKAKAKAC [DBAASP_351]
Class (dedicated toxicity dataset used for toxicity classifier evaluation) [1]: 0

GLLKRIKT [DBAASP_13874]
Class (dedicated toxicity dataset used for toxicity classifier evaluation) [1]: 0

FFHHIFRGIVHVGKKIHRLVKG [DBAASP_9984]
Class (dedicated toxicity dataset used for toxicity classifier evaluation) [1]: 0

RIGVLLARLPKLFSLFKLMGKKV [DBAASP_4189]
Class (dedicated toxicity dataset used for toxicity classifier evaluation) [1]: 0

GVVDILKGAAKDLAGHLATKVMNKL [DBAASP_4357]
Class (dedicated toxicity dataset used for toxicity classifier evaluation) [1]: 0

FLPAIAGVAAKFLPKIFCAITKKC [DBAASP_13909]
Class (dedicated toxicity dataset used for toxicity classifier evaluation) [1]: 0

FFRLLFHGVHHVGKIKPRA [DBAASP_1429]
Class (dedicated toxicity dataset used for toxicity classifier evaluation) [1]: 0

GIMSSLMKKLKAHIAK [DBAASP_8894]
Class (dedicated toxicity dataset used for toxicity classifier evaluation) [1]: 0

GLLRASSVWGRKYYVDLAGCAKA [DBAASP_1639]
Class (dedicated toxicity dataset used for toxicity classifier evaluation) [1]: 0

GWKKWFTKGERLSQRHFA [DBAASP_1000]
Class (dedicated toxicity dataset used for toxicity classifier evaluation) [1]: 0

GIIKKIIKKIIKK [DBAASP_13882]
Class (dedicated toxicity dataset used for toxicity classifier evaluation) [1]: 0

KIWFQNRRMKWKK [DBAASP_8800]
Class (dedicated toxicity dataset used for toxicity classifier evaluation) [1]: 0

FLPKILKVAAK [DBAASP_16465]
Class (dedicated toxicity dataset used for toxicity classifier evaluation) [1]: 0

KWKVFKKIEKMIRNIRNKIAK [DBAASP_11865]
Class (dedicated toxicity dataset used for toxicity classifier evaluation) [1]: 0

GWGSIFKHGRHAAKHIGHAAVNHYL [DBAASP_1420]
Class (dedicated toxicity dataset used for toxicity classifier evaluation) [1]: 0

GLLKRIKALL [DBAASP_3124]
Class (dedicated toxicity dataset used for toxicity classifier evaluation) [1]: 0

KWKLFKKIFKRIVQRIKDFLRN [DBAASP_9530]
Class (dedicated toxicity dataset used for toxicity classifier evaluation) [1]: 0

WKIFKLKLRMLW [DBAASP_13717]
Class (dedicated toxicity dataset used for toxicity classifier evaluation) [1]: 1

FLPLIASVAANLVPKIFCKITKKC [DBAASP_3564]
Class (dedicated toxicity dataset used for toxicity classifier evaluation) [1]: 0

GIKDLLKGAAKALVKTVLK [DBAASP_11236]
Class (dedicated toxicity dataset used for toxicity classifier evaluation) [1]: 0

RWCVYAYVRVRGVLVRYRRCW [DBAASP_13517]
Class (dedicated toxicity dataset used for toxicity classifier evaluation) [1]: 0

WWWLRRIW [DBAASP_10629]
Class (dedicated toxicity dataset used for toxicity classifier evaluation) [1]: 0

LLGPVLGLVSNVLGGLL [DBAASP_12136]
Class (dedicated toxicity dataset used for toxicity classifier evaluation) [1]: 0

LWKIWKKIWRVGWNWR [DBAASP_17513]
Class (dedicated toxicity dataset used for toxicity classifier evaluation) [1]: 0

GLKGLLGKALKGIGKHIGKAQGC [DBAASP_6808]
Class (dedicated toxicity dataset used for toxicity classifier evaluation) [1]: 0

WRRRYRRWRRRRRWRRRPRR [DBAASP_10396]
Class (dedicated toxicity dataset used for toxicity classifier evaluation) [1]: 0

GLLKRIKTLL [DBAASP_3116]
Class (dedicated toxicity dataset used for toxicity classifier evaluation) [1]: 0

RRWRIVVIRVRR [DBAASP_1204]
Class (dedicated toxicity dataset used for toxicity classifier evaluation): 0

FLIGMTQGLICLITRKC [DBAASP_1477]
Class (dedicated toxicity dataset used for toxicity classifier evaluation) [1]: 0

VRRFPWWAPFLRR [DBAASP_14267]
Class (dedicated toxicity dataset used for toxicity classifier evaluation) [1]: 0

GIMSSLMKKLAKIIAK [DBAASP_8900]
Class (dedicated toxicity dataset used for toxicity classifier evaluation) [1]: 0

LKKVLKAAA [DBAASP_7359]
Class (dedicated toxicity dataset used for toxicity classifier evaluation) [1]: 0

GFMSKVANFAKKFAKGGVNAIMNQK [DBAASP_5718]
Class (dedicated toxicity dataset used for toxicity classifier evaluation) [1]: 0

FLPGILKVAANVVPGVI [DBAASP_16463]
Class (dedicated toxicity dataset used for toxicity classifier evaluation) [1]: 0

RAGLQFPVGRVHRLLRK [DBAASP_7651]
Class (dedicated toxicity dataset used for toxicity classifier evaluation) [1]: 0

IKKIVSKIKKLL [DBAASP_7244]
Class (dedicated toxicity dataset used for toxicity classifier evaluation) [1]: 0

GKLGPLLKIAAKVGSNLL [DBAASP_11237]
Class (dedicated toxicity dataset used for toxicity classifier evaluation) [1]: 0

KQIKIWFQNKKMKWKK [DBAASP_8799]
Class (dedicated toxicity dataset used for toxicity classifier evaluation) [1]: 0
